According to patent US20250295634A1, “USE OF ANTIANDROGENS TO TREAT SEPSIS” (Rhode Island Hospital, priority 2024, published 2025):
Like-named read-outs stand apart in the source and are kept apart here.

Experiments:
TMPRSS2 [1] = details: in men; cited from earlier work
[2] = tested on: angiotensin converting enzyme 2 (ACE2); details: in men; cited from earlier work
COVID-19 [3] = details: men with diagnosis of AGA, outpatient setting; cited from earlier work
[4] = in vivo; cited from earlier work
COVID-19 [5] = details: cited from earlier work
sepsis = details: fecal peritonitis model; cited from earlier work
COVID-19 [6] = details: cited from earlier work; remark: listed apart in the source
TMPRSS2 [7] = details: cited from earlier work
COVID-19 [8] = details: inventors' reading of Welén et al.; the authors report no evidence of benefit; cited from earlier work
COVID-19 [9] = details: at five days of therapy; cited from earlier work
COVID-19 [10] = experiment: Clinical trial of proxalutamide in hospitalized COVID-19 patients in Brazil (NCT04728802); type: in vivo, human; details: initiated in patients that don't require supplemental O2
COVID-19 [11] = details: men, proxalutamide 200 mg for up to seven days; cited from earlier work
COVID-19 [12] = details: cited from earlier work; remark: listed apart in the source
androgen receptor = target: T1, androgen receptor (Homo sapiens, UniProt P10275); details: clinical evidence; cited from earlier work
T1 sequence (P10275 1-920): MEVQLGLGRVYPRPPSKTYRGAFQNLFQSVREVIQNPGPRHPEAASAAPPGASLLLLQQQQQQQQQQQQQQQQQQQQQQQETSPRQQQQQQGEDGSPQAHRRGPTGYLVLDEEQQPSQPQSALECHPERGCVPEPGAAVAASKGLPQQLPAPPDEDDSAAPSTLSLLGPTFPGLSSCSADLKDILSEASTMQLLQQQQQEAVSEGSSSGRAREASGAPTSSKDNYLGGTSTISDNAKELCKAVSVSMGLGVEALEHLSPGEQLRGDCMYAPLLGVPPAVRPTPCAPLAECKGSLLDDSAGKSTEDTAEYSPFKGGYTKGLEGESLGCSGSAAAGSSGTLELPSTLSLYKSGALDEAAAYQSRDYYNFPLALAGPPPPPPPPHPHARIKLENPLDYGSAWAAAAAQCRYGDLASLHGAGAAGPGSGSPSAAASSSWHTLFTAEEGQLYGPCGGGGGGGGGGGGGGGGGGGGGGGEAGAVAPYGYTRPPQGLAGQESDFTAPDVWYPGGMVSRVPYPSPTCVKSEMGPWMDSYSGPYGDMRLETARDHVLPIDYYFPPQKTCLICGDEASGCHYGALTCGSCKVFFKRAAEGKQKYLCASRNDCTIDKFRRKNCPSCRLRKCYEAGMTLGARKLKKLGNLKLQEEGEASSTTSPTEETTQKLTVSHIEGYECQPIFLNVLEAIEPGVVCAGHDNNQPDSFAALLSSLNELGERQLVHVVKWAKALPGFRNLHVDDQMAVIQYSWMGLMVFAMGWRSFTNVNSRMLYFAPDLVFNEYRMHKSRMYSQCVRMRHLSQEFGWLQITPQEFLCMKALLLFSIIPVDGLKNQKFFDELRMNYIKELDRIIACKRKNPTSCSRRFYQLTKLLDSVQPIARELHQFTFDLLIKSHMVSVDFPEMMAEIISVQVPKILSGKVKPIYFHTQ

ACE2 = details: cited from earlier work
COVID-19 [13] = details: patients with severe lung involvement; cited from earlier work
COVID-19 [14] = details: single case; case report later retracted; cited from earlier work

SMILES: CC(=O)S[C@@H]1CC2=CC(=O)CC[C@]2(C)[C@H]2CC[C@@]3(C)[C@@H](CC[C@@]34CCC(=O)O4)[C@H]12 [spironolactone]
- expression of TMPRSS2 (TMPRSS2 [1]): decrease the expression
- expression of ACE2 [2]: decrease the expression

SMILES: C[C@]12C=CC(=O)N[C@@H]1CC[C@@H]1[C@@H]2CC[C@]2(C)[C@@H](C(=O)Nc3cc(C(F)(F)F)ccc3C(F)(F)F)CC[C@@H]12 [dutasteride]
- expression of TMPRSS2 (TMPRSS2 [1]): decrease the expression
- expression of ACE2 [2]: decrease the expression
- symptomatic COVID-19 disease (COVID-19 [3]): less symptomatic COVID-19 disease
- half-life [4]: five

SMILES: C[C@]12CCC(=O)C=C1C=C[C@@H]1[C@@H]2CC[C@@]2(C)[C@H]1CC[C@@]21CCC(=O)O1 [Canrenone]
- fatalities (COVID-19 [5]; intensive care observational series of cases with hypertension or hypokalemia): associated with reduced fatalities

SMILES: COCCCC/C(=N\OCCN)c1ccc(C(F)(F)F)cc1 [fluvoxamine]
- anti-sepsis activity (sepsis): anti-sepsis activity

SMILES: CNC(=O)c1ccc(N2C(=S)N(c3ccc(C#N)c(C(F)(F)F)c3)C(=O)C2(C)C)cc1F [enzalutamide]
- mortality, subgroup analysis (COVID-19 [6]; human, in vivo): significantly reduce mortality
- TMPRSS2 regulation (TMPRSS2 [7]): significantly downregulated TMPRSS2
- effect on hospitalized COVID-19 patients (COVID-19 [8]): positive effects
- half-life [4]: 140 h

SMILES: CC(C)(C)NC(=O)[C@H]1CC[C@H]2[C@@H]3CC[C@H]4NC(=O)C=C[C@]4(C)[C@H]3CC[C@]12C [Finasteride]
- peripheral capillary oxygen saturation (COVID-19 [9]): clinically and statistically significant improvement
- half-life [4]: six

SMILES: CC1(C)C(=O)N(c2ccc(C#N)c(C(F)(F)F)c2F)C(=S)N1c1ccc(CCCc2ncco2)nc1 [proxalutamide]
- survival (COVID-19 [10]): no difference in survival
- 30-day hospitalization rate (COVID-19 [11]): about 2%
- reduction of the risk of hospitalization compared to usual care (COVID-19 [11]): more than 90%
- mortality in COVID-19 patients (COVID-19 [12]; data from Brazil, both arms using corticosteroids): dramatic impact of proxalutamide in reducing mortality
- lung opacities compared to placebo (COVID-19 [12]; hospitalized COVID-19 patients): improves lung opacities
- androgen receptor expression and activity (androgen receptor): lowers androgen receptor expression and activity
- expression of ACE2 (ACE2): lowers the expression of ACE2
- mortality, subgroup analysis (COVID-19 [6]; meta-analysis of RCTs): significantly reduce mortality
- benefit vs standard-of-care which includes steroids (COVID-19 [13]): showed benefit
- symptom resolution and laboratory improvement (COVID-19 [14]): striking symptom resolution and laboratory improvement within twenty-four hours

SMILES: C[C@]12CCC(=O)C=C1C=C[C@@H]1[C@@H]2CC[C@@]2(C)[C@H]1CC[C@@]2(O)CCC(=O)O [Potassium canrenoate]
- all-cause mortality (COVID-19 [5]; severe COVID patients): proven to reduce all-cause mortality
